We go through four molecules from patent US5178662A, “Benzaldehyde acetal compounds, preparation process thereof, and herbicidal compositions containing the same as active ingredients” (Mitsui Toatsu Chemicals, Inc., priority 1990, dated 1993).

Series [1] relates to Barnyardgrass (Echinochloa crusgalli). Briefly: Upland soil application test, barnyardgrass. In kind it is in vivo. Conditions: Echinochloa crus-galli, 1200 h; soil application one day after seeding, 50 g ai/a, wettable powder, fresh weight on 50th day after spray; read-out: Herbicidal effects Barnyardgrass (Echinochloa crusgalli). How it is done: (§1) Resin-made 1/1000-are pots were filled with the soil of an upland field. After they were fertilized, cotton and soybean were seeded and 3 cm soil covering was applied. In addition, amaranth, common lambs-quarters, barnyardgrass, green foxtail, large crabgrass and johnsongrass were seeded and 1 cm soil covering was applied. One day later, a wettable powder prepared from a predetermined amount of each test compound in a similar manner to the procedures described in Formulation Example 1 was diluted with water and then sprayed evenly at an application rate equal to 10 l per are onto the surface of the soil by means of a pressure-operated sprayer. The weeds and crops were allowed to grow in a green house and influence to them were observed on the 50th day after the spray. The degree of damages of each test plant and the degree of injury to each crop were determined by measuring fresh weight in each group and indicated by % calculated according to the following formula. [formula]

The subject of series [2] is Cotton (Gossypium indicum). Nature of the series: Upland foliar application test, crop injury cotton. In kind it is in vivo. The conditions noted are these: foliar application at stage of 2-3 leaves, 50 g ai/a, emulsion, 40th day after spray. How it is done:
as §1
(§2) Resin-made 1/1000-are pots were filled with the soil of an upland field. After they were fertilized, cotton and soybean were seeded and 3 cm soil covering was applied. Five days later, amaranth, common lambsquarters, barnyardgrass, green foxtail, large crabgrass and johnsongrass were seeded and 1 cm soil covering was applied. They were allowed to grow in a green house. When each plant grew to the stage of 2-3 leaves, an emulsion formulated from a predetermined amount of each test compound in a similar manner to the procedures described in Formulation Example 11 was diluted with water and then sprayed at a predetermined application rate by means of a pressure-operated sprayer. The application rate was controlled at 5 l per are. Influence to the crops and weeds were observed on the 40th day after the spray of the herbicides. The results are shown in Table 4 in which the degree of damages of each test plant and the degree of injury to each crop are shown in a similar manner to Test 2.

Series [3] relates to Soybean (Glycine max). Nature of the series: Upland foliar application test, crop injury soybean. In kind it is in vivo. Conditions: foliar application at stage of 2-3 leaves, 50 g ai/a, emulsion, 40th day after spray. How it is done: as §2
Series [4] has as its system common lambsquarters. Briefly: Upland soil application test, common lambsquarters. In kind it is in vivo. The conditions noted are these: Chenopodium album, 1200 h; soil application one day after seeding, 50 g ai/a, wettable powder, fresh weight on 50th day after spray; read-out: Herbicidal effects Common lambquarters. How it is done:
as §1

For series [5], the system named is Amaranth (Amaranthus viridis). Nature of the series: Upland soil application test, amaranth. In kind it is in vivo. Conditions: 1200 h, soil application one day after seeding, 50 g ai/a, wettable powder, fresh weight on 50th day after spray, read-out: Herbicidal effects Amaranth (Amaranthus viridis). On the procedure: as §1
The test system of series [6] is Johnsongrass. Briefly: Upland soil application test, johnsongrass. In kind it is in vivo. Conditions: Sorghum halepense, 1200 h; soil application one day after seeding, 50 g ai/a, wettable powder, fresh weight on 50th day after spray; read-out: Herbicidal effects Johnsongrass. How it is done:
as §1

For series [7], the system named is Cotton (Gossypium indicum). Nature of the series: Upland soil application test, crop injury cotton. In kind it is in vivo. The conditions noted are these: soil application one day after seeding, 50 g ai/a, wettable powder, fresh weight on 50th day after spray. How it is done: as §1
The subject of series [8] is common lambsquarters. Briefly: Upland foliar application test, common lambsquarters. In kind it is in vivo. The conditions noted are these: Chenopodium album, 960 h; foliar application at stage of 2-3 leaves, 50 g ai/a, emulsion, 40th day after spray; read-out: Herbicidal effects Common lambquarters. On the procedure:
as §2

The subject of series [9] is ALS (acetolactate syntase) from pea seedlings. Briefly: ALS (acetolactate syntase) inhibition test, pea enzyme. In kind it is biochemical. Conditions: 10,000 ppm (0.5 μg/0.5 ml) of compound; 1 hour at 30° C.; absorbance at 525 nm. How it is done: (§3) To determine the selectivity in enzyme level between crops and weeds, an ALS inhibition test was conducted using pea as a typical broadleaf crop and barnyardgrass as a representative gramineous weeds.
(§4) After seeds of pea and barnyardgrass were allowed to germinate at 25° C. for 8-14 days in a dark place, partially-purified suspensions (Suspensions A) of acetolactate syntase were separately obtained from the seedlings in accordance with the procedures described in the literature, Plant Physiology, 75, 827-831. In a test tube, 0.5 mg of one of test compounds was weighed, followed by the addition of 0.15 ml of a 20 mM K2 HPO4 solution and 0.25 ml of a reaction substrate medium which consisted of 40 mM of K2 HPO4, 40 mM of sodium pyruvate, 1 mM of TPP, 1 mM of MgCl2 and 20 μM of FAD so that 0.4 ml of a reaction solution (Solution B) was prepared. Added to 0.4 ml of Solution B was 0.1 ml of Suspension A. After the resultant mixture was shaken for 1 hour in a thermostat water bath controlled at 30° C., 50 μl of 6N sulfuric acid were added to terminate the reaction.
(§5) Next, the test tube with the reaction-terminated liquid mixture contained therein was transferred into a thermostat water bath controlled at 60° C. and was heated for 15 minutes. Thereafter, 0.5 ml of a 0.5% creatine solution and 0.5 ml of a 5% alkaline α-naphthol solution were added, and the resultant mixture was maintained at 60° C. for 15 minutes. As a result, the test solution developed a pink-to-red color. After the above operation, the absorbance of the test solution at 525 nm was measured by a spectrophotometer (Absorbance 1 of Test Compound).
(§6) Further, the absorbance (Absorbance 2 of Blank) of a solution obtained by subjecting a portion of Solution B to the above procedures without addition of any test compound and the absorbance (Absorbance 3 of sulfuric acid) of another solution obtained by subjecting another portion of Solution B to the above procedures which using 50 μl of 6N sulfuric acid as a test compound were also measured.

Series [10] has as its system Crabgrass (Digitaria adscendens). Nature of the series: Upland foliar application test, large crabgrass. Conditions: 960 h, foliar application at stage of 2-3 leaves, 50 g ai/a, emulsion, 40th day after spray, read-out: Herbicidal effects Crabgrass (Digitaria adscendens). In kind it is in vivo. On the procedure:
as §1, §2

Series [11] has as its system Soybean (Glycine max). Nature of the series: Upland soil application test, crop injury soybean. In kind it is in vivo. Conditions: soil application one day after seeding, 50 g ai/a, wettable powder, fresh weight on 50th day after spray. On the procedure: as §1
For series [12], the system named is Amaranth (Amaranthus viridis). Nature of the series: Upland foliar application test, amaranth. In kind it is in vivo. Conditions: 960 h, foliar application at stage of 2-3 leaves, 50 g ai/a, emulsion, 40th day after spray, read-out: Herbicidal effects Amaranth (Amaranthus viridis). How it is done:
as §1, §2

Series [13] concerns Foxtail (Setaria viridis). Briefly: Upland foliar application test, green foxtail. The conditions noted are these: 960 h, foliar application at stage of 2-3 leaves, 50 g ai/a, emulsion, 40th day after spray, read-out: Herbicidal effects Foxtail (Setaria viridis). In kind it is in vivo. How it is done:
as §1, §2

Series [14] deals with Barnyardgrass (Echinochloa crusgalli). Nature of the series: Upland foliar application test, barnyardgrass. In kind it is in vivo. Conditions: Echinochloa crus-galli, 960 h; foliar application at stage of 2-3 leaves, 50 g ai/a, emulsion, 40th day after spray; read-out: Herbicidal effects Barnyardgrass (Echinochloa crusgalli). How it is done: as §2
Series [15] has as its system Foxtail (Setaria viridis). Nature of the series: Upland soil application test, green foxtail. The conditions noted are these: 1200 h, soil application one day after seeding, 50 g ai/a, wettable powder, fresh weight on 50th day after spray, read-out: Herbicidal effects Foxtail (Setaria viridis). In kind it is in vivo. How it is done: as §1
The test system of series [16] is Johnsongrass. Briefly: Upland foliar application test, johnsongrass. The conditions noted are these: Sorghum halepense, 960 h; foliar application at stage of 2-3 leaves, 50 g ai/a, emulsion, 40th day after spray; read-out: Herbicidal effects Johnsongrass. In kind it is in vivo. On the procedure:
as §2

The test system of series [17] is ALS (acetolactate syntase) from barnyardgrass seedlings. Nature of the series: ALS (acetolactate syntase) inhibition test, barnyardgrass enzyme. In kind it is biochemical. Conditions: 10,000 ppm (0.5 μg/0.5 ml) of compound; 1 hour at 30° C.; absorbance at 525 nm. How it is done: as §3, §4, §5, §6
Series [18] has as its system johnsongrass emerging from rhizome. Nature of the series: Application test on johnsongrass emerging from rhizome. Conditions: foliar application at stage of 4-5 leaves, application rate of active ingredient 20 (unit not given), emulsion, 50th day after spray. In kind it is in vivo. How it is done: as §1
Resin-made 1/1000-are pots were filled with the soil of an upland field. After they were fertilized, rhizome of johnsongrass were transplanted to the pots and 3 cm soil covering was applied. They were allowed to grow in a green house. When each johnsongrass grew to the stage of 4-5 leaves, an emulsion formulated from a predetermined amount of each test compound in a similar manner to the procedures described in Formulation Example 11 was diluted with water and then sprayed at a predetermined application rate by means of a pressure-operated sprayer. The application rate was controlled at 5 l per are. The effect of each compound against the johnsongrass emerging from its rhizome was observed on the 50th day after the spray of the herbicides. The results are shown in Table 5 in which the herbicidal effect against johnsongrass is shown in a similar manner to Test 2.

For series [19], the system named is Crabgrass (Digitaria adscendens). Nature of the series: Upland soil application test, large crabgrass. In kind it is in vivo. The conditions noted are these: 1200 h, soil application one day after seeding, 50 g ai/a, wettable powder, fresh weight on 50th day after spray, read-out: Herbicidal effects Crabgrass (Digitaria adscendens). On the procedure: as §1

For the molecule `COC(=O)c1ccccc1Oc1nc(OC)cc(OC)n1` [Comp. Comp'd A, reference compound], the pest or weed control at 5000 g/ha in series [1], in series [4], in series [5], in series [6], in series [8] and in series [10] was 100% in each case. Besides, the pest or weed control at 5000 g/ha in series [12], in series [13], in series [14], in series [15], in series [16] and in [19] was 100% in each case. Further, the “Crop injury Cotton (Gossypium indicum)” value in series [2] and in [7] was 100% each time. Further, the “Crop injury Soybean (Glycine max)” value in series [3] and in series [11] was 100% in each case. Moreover, the “Enzymoreaction inhibition rate (%) Pea” value in series [9] was determined as 72%. Moreover, the “Enzymoreaction inhibition rate (%) Barnyardgrass” value in [17] stood at 73%. For the same molecule, in [18], the “Herbicidal effect against johnsongrass emerging from rhizome” value (shortened to “Herbicidal effect”) is recorded as 60%.
Regarding `CCCOC(OCCC)c1ccccc1Oc1nc(OC)cc(OC)n1` [Compound No. 1], the pest or weed control at 5000 g/ha in series [1], in series [4], in series [5], in [6], in [8] and in series [10] was 100% throughout. For the same molecule, the pest or weed control at 5000 g/ha in series [12], in [13], in [14], in series [15], in series [16] and in series [19] was 100% throughout. Besides, the “Crop injury Cotton (Gossypium indicum)” value in series [2] and in series [7] was 0% each time. The “Crop injury Soybean (Glycine max)” value in [3] and in series [11] was 0% in each case. Moreover, the “Enzymoreaction inhibition rate (%) Pea” value in series [9] worked out at 0%. Moreover, the “Enzymoreaction inhibition rate (%) Barnyardgrass” value in [17] was 100%. Moreover, in series [18], the “Herbicidal effect” value was determined as 100%.
Take `CCCCCOC(OCCCCC)c1ccccc1Oc1nc(OC)cc(OC)n1` [Compound No. 4]: the pest or weed control at 5000 g/ha in [1], in series [4], in [5], in [6], in series [8] and in series [10] was 100% throughout. Besides, the pest or weed control at 5000 g/ha in series [12], in [13], in [14], in [15], in series [16] and in series [19] was 100% each time. Further, the “Crop injury Cotton (Gossypium indicum)” value in series [2] and in [7] was 0% in each case. The “Crop injury Soybean (Glycine max)” value in [3] and in [11] was 0% each time. Further, the “Enzymoreaction inhibition rate (%) Pea” value in [9] is recorded as 0%. Further, the “Enzymoreaction inhibition rate (%) Barnyardgrass” value in [17] was found to be 100%. Besides, in series [18], the “Herbicidal effect” value was 100%.
As for `COc1cc(OC)nc(Oc2ccccc2C=O)n1` [Comp. Comp'd B, reference compound], the pest or weed control at 5000 g/ha came to 100% in series [1]; 85% in [4]; 80% in [5]; 100% in series [6]; 80% in series [8]; 100% in [10]. Also, the pest or weed control at 5000 g/ha in series [12] turned out to be 80%; in series [13], 100%; in [14] it was 100%; in [15], 100%; in [16] it was 100%; in series [19], 100%. In addition, the “Crop injury Cotton (Gossypium indicum)” value in series [2] and in [7] was 100% throughout. For the same molecule, the “Crop injury Soybean (Glycine max)” value in [3] and in series [11] was 100% throughout. Also, the “Enzymoreaction inhibition rate (%) Pea” value in [9] is 92%. Moreover, in [17], the “Enzymoreaction inhibition rate (%) Barnyardgrass” value worked out at 98%. Besides, in [18], the “Herbicidal effect” value is on record as 35%.
